In US11136329B2, “JAK inhibitors” (Vimalan Biosciences, Inc., priority 2019, dated 2021):

Legend:
Format in all cases: biochemical
JAK1 = JAK1 (Homo sapiens (Human), UniProt P23458); assay: JAK/TYK2 assay (Kinase Glo luminescence), JAK1; conditions: 7.5 nM enzyme, 2 uM ATP, 30 uM IRS-1, 1 hr
Method: (§1) 10 mM test compound stock or 1 mM control compound stock (tofocitinib, ruxolitinib or staurosporine) in DMSO was diluted to 0.4 mM in DMSO. A 3-fold series dilution was then performed in DMSO to generate 10 different compound concentrations. The assay was carried out in 384-well white plate. 0.5 uL of 40× compound DMSO solution at different concentrations was mixed with 10 uL 2× enzyme prepared in reaction buffer (20 mM HEPES, 10 mM MgCl2, 0.01% Tween, 1 mM DTT, pH 7.5). 10 uL 2× substrate mixture prepared in reaction buffer was then added to start the reaction. A short spin was done to settle down all solutions to the bottom of the plate. Final concentrations of test compound in the reaction mixture were 10000, 3333, 1111, 370, 123, 41.2, 13.7, 4.57, 1.52and 0.51 nM. Concentrations of control compound were ten times less. Enzymatic reaction was conducted at 25° C. for 1-2 hours. 10 uL of Kinase Glo Reagents was added to stop the reaction and generate the luminescent signal which was measured using Envision. Luminescence signal was inversely related to kinase activity. […] The mixture without any compound was the positive control.

JAK2 = JAK2 (Homo sapiens (Human), UniProt O60674); assay: JAK/TYK2 assay (Kinase Glo luminescence), JAK2; conditions: 0.8 nM enzyme, 2 uM ATP, 4 uM pEY, 1 hr
Method: as §1

JAK3 = JAK3 (Homo sapiens (Human), UniProt P52333); assay: JAK/TYK2 assay (Kinase Glo luminescence), JAK3; conditions: 1.5 nM enzyme, 2 uM ATP, 4 uM pEY, 1 hr
Method: as §1

TYK2 = TYK2 (Homo sapiens (Human), UniProt P29597); assay: JAK/TYK2 assay (Kinase Glo luminescence), TYK2; conditions: 9 nM enzyme, 2 uM ATP, 30 uM IRS-1, 1 hr
Method: as §1

Chain of TYK2 (P29597 whole entry, species assumed): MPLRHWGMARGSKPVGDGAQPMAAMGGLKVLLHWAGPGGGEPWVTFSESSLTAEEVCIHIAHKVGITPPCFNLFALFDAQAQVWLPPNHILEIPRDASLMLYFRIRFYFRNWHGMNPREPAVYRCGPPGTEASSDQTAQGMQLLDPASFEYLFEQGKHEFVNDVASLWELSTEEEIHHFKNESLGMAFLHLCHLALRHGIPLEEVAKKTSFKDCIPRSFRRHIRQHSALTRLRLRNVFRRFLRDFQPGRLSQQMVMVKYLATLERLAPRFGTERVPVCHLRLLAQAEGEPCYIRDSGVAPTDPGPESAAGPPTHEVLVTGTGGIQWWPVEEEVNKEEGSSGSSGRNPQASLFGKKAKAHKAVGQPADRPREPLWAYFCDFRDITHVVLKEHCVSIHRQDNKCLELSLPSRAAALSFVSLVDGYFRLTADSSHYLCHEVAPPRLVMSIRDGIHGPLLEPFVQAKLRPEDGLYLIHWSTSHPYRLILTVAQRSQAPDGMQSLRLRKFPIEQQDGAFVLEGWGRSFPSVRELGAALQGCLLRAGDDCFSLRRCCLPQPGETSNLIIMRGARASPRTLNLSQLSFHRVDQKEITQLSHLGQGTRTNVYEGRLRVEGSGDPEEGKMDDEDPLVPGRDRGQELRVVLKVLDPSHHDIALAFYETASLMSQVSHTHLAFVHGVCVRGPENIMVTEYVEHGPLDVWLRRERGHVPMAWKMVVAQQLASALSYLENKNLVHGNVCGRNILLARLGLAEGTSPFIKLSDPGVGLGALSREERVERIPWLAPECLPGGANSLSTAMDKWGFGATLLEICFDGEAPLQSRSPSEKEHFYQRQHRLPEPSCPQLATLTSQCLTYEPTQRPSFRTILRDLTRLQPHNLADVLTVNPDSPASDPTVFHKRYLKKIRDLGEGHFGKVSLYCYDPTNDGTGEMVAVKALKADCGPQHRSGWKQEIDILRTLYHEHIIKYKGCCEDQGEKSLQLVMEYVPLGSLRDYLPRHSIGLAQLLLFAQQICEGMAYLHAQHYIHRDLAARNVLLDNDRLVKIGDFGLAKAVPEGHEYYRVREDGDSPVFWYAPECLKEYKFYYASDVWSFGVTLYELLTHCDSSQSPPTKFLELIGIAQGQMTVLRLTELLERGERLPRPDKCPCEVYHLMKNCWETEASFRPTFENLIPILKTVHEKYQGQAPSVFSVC
Chain of JAK3 (P52333 whole entry, species assumed): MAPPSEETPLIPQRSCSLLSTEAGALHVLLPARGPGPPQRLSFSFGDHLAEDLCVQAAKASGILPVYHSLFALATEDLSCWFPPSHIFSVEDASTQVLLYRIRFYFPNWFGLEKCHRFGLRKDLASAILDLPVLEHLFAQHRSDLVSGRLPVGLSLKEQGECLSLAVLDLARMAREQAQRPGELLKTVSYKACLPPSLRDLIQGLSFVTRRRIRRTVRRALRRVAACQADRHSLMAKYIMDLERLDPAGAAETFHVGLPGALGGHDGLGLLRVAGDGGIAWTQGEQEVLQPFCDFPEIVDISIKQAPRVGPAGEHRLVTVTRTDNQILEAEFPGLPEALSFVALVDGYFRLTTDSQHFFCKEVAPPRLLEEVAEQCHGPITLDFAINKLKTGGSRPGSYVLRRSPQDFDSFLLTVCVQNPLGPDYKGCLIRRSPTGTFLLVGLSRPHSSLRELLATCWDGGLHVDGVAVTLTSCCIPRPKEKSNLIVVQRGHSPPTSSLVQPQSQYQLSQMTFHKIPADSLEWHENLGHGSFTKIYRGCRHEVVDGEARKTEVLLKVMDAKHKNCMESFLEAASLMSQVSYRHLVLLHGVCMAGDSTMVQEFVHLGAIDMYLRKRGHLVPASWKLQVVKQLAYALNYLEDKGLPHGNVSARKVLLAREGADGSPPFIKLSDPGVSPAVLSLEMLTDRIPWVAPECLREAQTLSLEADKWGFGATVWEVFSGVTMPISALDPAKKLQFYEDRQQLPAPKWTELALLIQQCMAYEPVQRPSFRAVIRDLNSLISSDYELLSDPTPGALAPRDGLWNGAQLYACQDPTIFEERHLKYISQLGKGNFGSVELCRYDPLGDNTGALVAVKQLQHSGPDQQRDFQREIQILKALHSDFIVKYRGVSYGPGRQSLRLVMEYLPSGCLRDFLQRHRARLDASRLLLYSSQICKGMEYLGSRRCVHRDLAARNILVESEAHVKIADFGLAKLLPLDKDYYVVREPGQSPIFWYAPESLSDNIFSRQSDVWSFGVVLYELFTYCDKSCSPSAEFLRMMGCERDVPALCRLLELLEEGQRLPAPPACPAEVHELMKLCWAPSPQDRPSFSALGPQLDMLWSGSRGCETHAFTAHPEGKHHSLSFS
Chain of JAK2 (O60674 whole entry, species assumed): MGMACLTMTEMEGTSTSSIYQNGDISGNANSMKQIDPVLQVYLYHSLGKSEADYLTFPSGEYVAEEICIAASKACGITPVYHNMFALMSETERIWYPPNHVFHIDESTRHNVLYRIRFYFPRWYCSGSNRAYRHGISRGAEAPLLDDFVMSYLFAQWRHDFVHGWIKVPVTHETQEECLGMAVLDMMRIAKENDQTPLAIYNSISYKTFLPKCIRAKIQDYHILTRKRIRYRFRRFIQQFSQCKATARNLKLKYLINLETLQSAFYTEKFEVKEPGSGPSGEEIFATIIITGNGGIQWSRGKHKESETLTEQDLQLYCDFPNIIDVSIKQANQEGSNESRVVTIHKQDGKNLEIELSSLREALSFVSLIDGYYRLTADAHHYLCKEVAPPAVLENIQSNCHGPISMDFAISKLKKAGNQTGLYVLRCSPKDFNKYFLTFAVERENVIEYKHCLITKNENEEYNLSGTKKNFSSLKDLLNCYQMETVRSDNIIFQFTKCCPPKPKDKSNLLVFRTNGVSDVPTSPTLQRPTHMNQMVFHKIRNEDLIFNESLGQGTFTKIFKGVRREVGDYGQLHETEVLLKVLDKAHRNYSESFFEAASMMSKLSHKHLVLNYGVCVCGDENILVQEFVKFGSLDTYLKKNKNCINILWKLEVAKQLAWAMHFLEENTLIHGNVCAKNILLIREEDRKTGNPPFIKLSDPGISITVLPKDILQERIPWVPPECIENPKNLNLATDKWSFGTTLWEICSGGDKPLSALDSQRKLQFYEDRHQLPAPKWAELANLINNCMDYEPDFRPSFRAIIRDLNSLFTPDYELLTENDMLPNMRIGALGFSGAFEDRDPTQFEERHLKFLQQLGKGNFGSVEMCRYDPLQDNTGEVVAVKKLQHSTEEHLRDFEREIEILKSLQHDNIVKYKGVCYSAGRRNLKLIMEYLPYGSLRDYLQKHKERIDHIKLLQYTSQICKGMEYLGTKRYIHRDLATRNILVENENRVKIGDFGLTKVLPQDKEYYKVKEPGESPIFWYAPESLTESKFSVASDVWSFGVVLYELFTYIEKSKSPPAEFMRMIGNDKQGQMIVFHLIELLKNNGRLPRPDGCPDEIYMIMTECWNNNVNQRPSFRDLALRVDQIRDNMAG
Chain of JAK1 (P23458 whole entry, species assumed): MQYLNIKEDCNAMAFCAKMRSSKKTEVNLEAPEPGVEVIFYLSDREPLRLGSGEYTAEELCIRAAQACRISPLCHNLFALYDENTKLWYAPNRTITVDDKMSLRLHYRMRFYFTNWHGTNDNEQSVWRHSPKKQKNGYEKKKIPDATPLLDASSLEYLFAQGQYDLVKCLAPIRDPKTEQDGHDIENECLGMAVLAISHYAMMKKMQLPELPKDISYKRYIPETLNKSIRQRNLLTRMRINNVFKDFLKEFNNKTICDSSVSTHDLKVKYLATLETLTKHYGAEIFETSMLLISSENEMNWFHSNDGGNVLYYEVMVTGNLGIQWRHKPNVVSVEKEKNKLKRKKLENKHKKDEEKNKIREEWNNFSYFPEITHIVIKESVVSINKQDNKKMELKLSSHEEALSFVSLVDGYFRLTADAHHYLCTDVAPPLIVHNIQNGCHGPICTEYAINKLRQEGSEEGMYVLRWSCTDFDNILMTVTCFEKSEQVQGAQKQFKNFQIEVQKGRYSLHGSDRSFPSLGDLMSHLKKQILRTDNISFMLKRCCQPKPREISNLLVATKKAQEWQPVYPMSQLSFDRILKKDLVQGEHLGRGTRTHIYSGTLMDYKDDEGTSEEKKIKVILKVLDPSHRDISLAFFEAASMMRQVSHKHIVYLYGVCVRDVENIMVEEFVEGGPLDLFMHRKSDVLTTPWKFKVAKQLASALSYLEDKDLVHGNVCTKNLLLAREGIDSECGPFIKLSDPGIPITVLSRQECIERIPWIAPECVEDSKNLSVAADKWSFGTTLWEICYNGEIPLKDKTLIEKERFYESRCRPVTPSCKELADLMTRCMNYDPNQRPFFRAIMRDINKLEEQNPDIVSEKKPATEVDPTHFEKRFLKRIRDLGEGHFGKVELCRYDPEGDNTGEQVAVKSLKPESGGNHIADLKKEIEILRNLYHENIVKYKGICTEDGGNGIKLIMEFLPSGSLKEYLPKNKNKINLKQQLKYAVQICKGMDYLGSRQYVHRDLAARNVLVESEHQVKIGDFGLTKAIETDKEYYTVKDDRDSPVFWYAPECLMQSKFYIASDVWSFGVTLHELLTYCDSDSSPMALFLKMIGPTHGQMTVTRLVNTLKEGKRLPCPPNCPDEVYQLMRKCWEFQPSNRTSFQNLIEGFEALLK

Compound | IC50 (JAK1) [nM] | IC50 (JAK2) [nM] | IC50 (JAK3) [nM] | IC50 (TYK2) [nM]
CCOC(=O)Cn1cc(Nc2ncc3ccn(Cc4csc(C)n4)c3n2)cn1 [Compound 55, ethyl 2-(4-((7-((2-methylthiazol-4-yl)methyl)-7H-pyrrolo[2,3-d]pyrimidin-2-yl)amino)-1H-pyrazol-1-yl)acetate] | 100 to 1000 | < 100 | < 100 | 100 to 1000
CCOC(=O)Cn1cc(Nc2ncc3ccn(CC(CC)CO)c3n2)cn1 (centres unmarked) [Compound 65, ethyl 2-(4-((7-(2-(hydroxymethyl)butyl)-7H-pyrrolo[2,3-d]pyrimidin-2-yl)amino)-1H-pyrazol-1-yl)acetate] | < 100 | < 100 | < 100 | < 100
CCOC(=O)Cn1cc(Nc2ncc3ccn(CC(CC)CC#N)c3n2)cn1 (centres unmarked) [Compound 70, ethyl 2-(4-((7-(2-(cyanomethyl)butyl)-7H-pyrrolo[2,3-d]pyrimidin-2-yl)amino)-1H-pyrazol-1-yl)acetate] | < 100 | < 100 | < 100 | < 100
CC[C@H](Cn1ccc2cnc(Nc3cnn(C4CCOC4=O)c3)nc21)C(C)C (stereo partly drawn) [Compound 82, 3-(4-((7-((S)-2-ethyl-3-methylbutyl)-7H-pyrrolo[2,3-d]pyrimidin-2-yl)amino)-1H-pyrazol-1-yl)dihydrofuran-2(3H)-one] | < 100 | < 100 | < 100 | < 100
CC[C@H](Cn1ccc2cnc(Nc3cnn([C@@H]4CCOC4=O)c3)nc21)C(C)C [Compound 82A, (R)-3-(4-((7-((S)-2-ethyl-3-methylbutyl)-7H-pyrrolo[2,3-d]pyrimidin-2-yl)amino)-1H-pyrazol-1-yl)dihydrofuran-2(3H)-one] | < 100 | < 100 | < 100 | < 100
CC[C@H](Cn1ccc2cnc(Nc3cnn([C@H]4CCOC4=O)c3)nc21)C(C)C [Compound 82B, (S)-3-(4-((7-((S)-2-ethyl-3-methylbutyl)-7H-pyrrolo[2,3-d]pyrimidin-2-yl)amino)-1H-pyrazol-1-yl)dihydrofuran-2(3H)-one] | < 100 | < 100 | < 100 | < 100
CCC(Cn1ccc2cnc(Nc3cnn(CC(=O)OC(C)C)c3)nc21)C(C)C (centres unmarked) [Compound 83, isopropyl 2-(4-((7-(2-ethyl-3-methylbutyl)-7H-pyrrolo[2,3-d]pyrimidin-2-yl)amino)-1H-pyrazol-1-yl)acetate] | < 100 | < 100 | < 100 | < 100
CCCCOC(=O)Cn1cc(Nc2ncc3ccn(CC(CC)C(C)C)c3n2)cn1 (centres unmarked) [Compound 84, butyl 2-(4-((7-(2-ethyl-3-methylbutyl)-7H-pyrrolo[2,3-d]pyrimidin-2-yl)amino)-1H-pyrazol-1-yl)acetate] | < 100 | < 100 | < 100 | < 100
CCOCCOC(=O)Cn1cc(Nc2ncc3ccn(CC(CC)C(C)C)c3n2)cn1 (centres unmarked) [Compound 86, 2-ethoxyethyl 2-(4-((7-(2-ethyl-3-methylbutyl)-7H-pyrrolo[2,3-d]pyrimidin-2-yl)amino)-1H-pyrazol-1-yl)acetate] | < 100 | < 100 | < 100 | < 100
CCC(CC)Cn1ccc2cnc(Nc3cnn(CC(=O)OCCC#N)c3)nc21 [Compound 89, 2-cyanoethyl 2-(4-((7-(2-ethylbutyl)-7H-pyrrolo[2,3-d]pyrimidin-2-yl)amino)-1H-pyrazol-1-yl)acetate] | < 100 | < 100 | < 100 | < 100
CCC(CC)Cn1ccc2cnc(Nc3cnn(CC(=O)OC(C)C)c3)nc21 [Compound 93, isopropyl 2-(4-((7-(2-ethylbutyl)-7H-pyrrolo[2,3-d]pyrimidin-2-yl)amino)-1H-pyrazol-1-yl)acetate] | < 100 | < 100 | < 100 | < 100
CC(C)OC(=O)Cn1cc(Nc2ncc3ccn(C[C@@H](CCN(C)C)C(C)C)c3n2)cn1 [Compound 96, isopropyl (S)-2-(4-((7-(4-(dimethylamino)-2-isopropylbutyl)-7H-pyrrolo[2,3-d]pyrimidin-2-yl)amino)-1H-pyrazol-1-yl)acetate] | 100 to 1000 | 100 to 1000 | 100 to 1000 | 100 to 1000

Other lines, results leading:

IC50 (JAK1) [nM] | IC50 (JAK2) [nM] | IC50 (JAK3) [nM] | IC50 (TYK2) [nM] | Compound
100 to 1000 | < 100 | < 100 | < 100 | CCOC(=O)Cn1cc(Nc2ncc3ccn(C[C@H]4CC[C@@H](O)CC4)c3n2)cn1 [Compound 52, ethyl 2-(4-((7-(((1s,4s)-4-hydroxycyclohexyl)methyl)-7H-pyrrolo[2,3-d]pyrimidin-2-yl)amino)-1H-pyrazol-1-yl)acetate]
< 100 | < 100 | < 100 | < 100 | CCC(Cn1ccc2cnc(Nc3cnn(CC(=O)OCCO)c3)nc21)C(C)C (centres unmarked) [Compound 85, 2-hydroxyethyl 2-(4-((7-(2-ethyl-3-methylbutyl)-7H-pyrrolo[2,3-d]pyrimidin-2-yl)amino)-1H-pyrazol-1-yl)acetate]
< 100 | < 100 | < 100 | < 100 | CC(C)C(Cn1ccc2cnc(Nc3cnn(CC(=O)O)c3)nc21)C(C)C [Compound 87, 2-(4-((7-(2-isopropyl-3-methylbutyl)-7H-pyrrolo[2,3-d]pyrimidin-2-yl)amino)-1H-pyrazol-1-yl)acetic acid]
< 100 | < 100 | < 100 | < 100 | CC(C)C(Cn1ccc2cnc(Nc3cnn(CC(=O)OCCO)c3)nc21)C(C)C [Compound 88, 2-hydroxyethyl 2-(4-((7-(2-isopropyl-3-methylbutyl)-7H-pyrrolo[2,3-d]pyrimidin-2-yl)amino)-1H-pyrazol-1-yl)acetate]
< 100 | < 100 | < 100 | < 100 | CCC(CC)Cn1ccc2cnc(Nc3cnn(CC(=O)OCCO)c3)nc21 [Compound 90, 2-hydroxyethyl 2-(4-((7-(2-ethylbutyl)-7H-pyrrolo[2,3-d]pyrimidin-2-yl)amino)-1H-pyrazol-1-yl)acetate]
< 100 | < 100 | < 100 | < 100 | CCC(CC)Cn1ccc2cnc(Nc3cnn(CC(=O)OC4CC(C#N)C4)c3)nc21 (centres unmarked) [Compound 91, 3-cyanocyclobutyl 2-(4-((7-(2-ethylbutyl)-7H-pyrrolo[2,3-d]pyrimidin-2-yl)amino)-1H-pyrazol-1-yl)acetate]
< 100 | < 100 | < 100 | < 100 | CCC(Cn1ccc2cnc(Nc3cnn(CC(=O)OCCC#N)c3)nc21)C(C)C (centres unmarked) [Compound 92, 2-cyanoethyl 2-(4-((7-(2-ethyl-3-methylbutyl)-7H-pyrrolo[2,3-d]pyrimidin-2-yl)amino)-1H-pyrazol-1-yl)acetate]
< 100 | < 100 | < 100 | < 100 | CC(C)OC(=O)Cn1cc(Nc2ncc3ccn(CC(C(C)C)C(C)C)c3n2)cn1 [Compound 94, isopropyl 2-(4-((7-(2-isopropyl-3-methylbutyl)-7H-pyrrolo[2,3-d]pyrimidin-2-yl)amino)-1H-pyrazol-1-yl)acetate]
